Results on 13 compounds are retold here after PubChem BioAssay (NCI).

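1) Cells in 96-well plates. 2) Compound, 48 h, 5 concentrations. 3) Linear interpolation between surrounding doses. 4) Unreached endpoint = highest concentration. GI50 marks 50% less growth. The concentration for full growth arrest is given as TGI.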 A value given as a limit tells only on which side of the number the result lay.

Some test systems named below: K-562 leukemia; BT-549 breast; HCT-15 colon; RPMI-8226 leukemia; SK-MEL-28 melanoma; DU-145 prostate; SK-MEL-2 melanoma; OVCAR-4 ovarian; NCI-H522 lung; CAKI-1 renal.
Holding throughout (assay): inhibition of tumour cell growth, NCI panel, 48 h

On to `Cc1ccc(C(=O)Cn2c(C(=O)/C=C/c3cccs3)nc3ccccc32)cc1`, for which the TGI in the assay on K-562 leukemia, in the assay with BT-549 breast, in the assay with HCT-15 colon, with RPMI-8226 leukemia, in the assay with SK-MEL-28 melanoma and with DU-145 prostate was more than 100 µM each time. The values for the TGI in the assay on SK-MEL-2 melanoma and with OVCAR-4 ovarian were 48.3 µM and more than 100 µM, respectively.
`Nc1ccc(Oc2ccc(C3(c4ccc(Oc5ccc(N)cc5)cc4)C4CC5CC(C4)CC3C5)cc2)cc1`: the TGI in the assay on K-562 leukemia is more than 100 µM; in the assay on NCI-H522 lung, more than 59.7 µM; with CAKI-1 renal it was more than 83.4 µM; with BT-549 breast, more than 49.2 µM; in the assay with HCT-15 colon, 35.7 µM; in the assay on RPMI-8226 leukemia it was 17.4 µM. The TGI in the assay with SK-MEL-28 melanoma was more than 77.9 µM; in the assay with DU-145 prostate, more than 53.5 µM; with SK-MEL-2 melanoma it was more than 100 µM; in the assay on OVCAR-4 ovarian it was more than 74 µM.
In the case of `Cc1c2c(OCC(O)CN3CCN(c4ccccc4)CC3)nn(C)c(=O)c2c(C)n1-c1ccccc1` (stereo unspecified), the TGI with K-562 leukemia is 69.2 µM; with NCI-H522 lung, 42.2 µM; in the assay with CAKI-1 renal it was more than 100 µM; with BT-549 breast it was 47.6 µM; in the assay on HCT-15 colon, 43.5 µM; in the assay on RPMI-8226 leukemia it was 52.5 µM. Also, the TGI with SK-MEL-28 melanoma was 40.2 µM; in the assay with DU-145 prostate, more than 100 µM; in the assay on SK-MEL-2 melanoma, 33.1 µM; with OVCAR-4 ovarian it was more than 100 µM.
On to `CC(=O)O[C@@H]1C(=O)N(c2ccccc2)[C@@H]1c1cc2ccccc2c2ccccc12`, for which the TGI in the assay with K-562 leukemia was more than 100 µM; in the assay with NCI-H522 lung it was 11.2 µM; in the assay on CAKI-1 renal, 36.8 µM; in the assay with HCT-15 colon it was more than 100 µM; with RPMI-8226 leukemia, 82.6 µM; with SK-MEL-28 melanoma it was more than 100 µM. The TGI in the assay with DU-145 prostate is more than 100 µM; in the assay with SK-MEL-2 melanoma, 40.6 µM; with OVCAR-4 ovarian, 78.5 µM.
Regarding `O=C(Nc1ccc(-n2cc(-c3ccncc3)c(-c3ccc(O)c(Cl)c3)n2)cc1)Nc1ccc(Cl)c(C(F)(F)F)c1`, the GI50 is 3.89 µM in the assay on K-562 leukemia; 2.54 µM with NCI-H522 lung; 3.17 µM in the assay with CAKI-1 renal; 2.95 µM in the assay on HCT-15 colon; 1.99 µM in the assay with RPMI-8226 leukemia; 3.64 µM in the assay with SK-MEL-28 melanoma. Also, the GI50 is 4.99 µM in the assay with DU-145 prostate, 1.97 µM in the assay on SK-MEL-2 melanoma and 3.97 µM with OVCAR-4 ovarian. Further, the TGI amounted to 49.4 µM with K-562 leukemia; 13.4 µM in the assay on NCI-H522 lung; 19.8 µM with CAKI-1 renal; 11.8 µM in the assay on HCT-15 colon; 5.32 µM with RPMI-8226 leukemia; 15 µM in the assay with SK-MEL-28 melanoma. Moreover, the TGI worked out at 18 µM in the assay with DU-145 prostate, 4.52 µM in the assay on SK-MEL-2 melanoma and 29.9 µM in the assay on OVCAR-4 ovarian.
Turning to `C#C/C=C\CCCCCCCCCCCCCC/C=C\CCCCC#CC(O)C#CCCCC/C=C\CCCCCC/C=C/C(O)C#C` (stereo unspecified), the TGI was more than 75 µM with K-562 leukemia; more than 16 µM in the assay with NCI-H522 lung; 18.1 µM in the assay with CAKI-1 renal; more than 75 µM with BT-549 breast; more than 62.3 µM in the assay with HCT-15 colon; more than 72 µM with SK-MEL-28 melanoma. For the same compound, the values for the TGI in the assay on DU-145 prostate, in the assay on SK-MEL-2 melanoma and in the assay on OVCAR-4 ovarian were more than 75 µM, 37.1 µM and 26.4 µM, respectively.
Consider `O=[N+]([O-])c1ccc(Oc2c(Cl)cc(S(=O)(=O)/N=C(\NO)Nc3ccc(Cl)cc3)cc2Cl)c(Cl)c1`, for which the TGI in the assay on K-562 leukemia was determined as 35 µM; in the assay with NCI-H522 lung, 26.4 µM; in the assay with CAKI-1 renal, 28.3 µM; in the assay with BT-549 breast, 29 µM; in the assay on HCT-15 colon, 32.1 µM; in the assay with RPMI-8226 leukemia it was 34.3 µM. The TGI in the assay on SK-MEL-28 melanoma worked out at 47.6 µM; in the assay with DU-145 prostate it was 26.8 µM; in the assay on SK-MEL-2 melanoma, 35.7 µM; with OVCAR-4 ovarian, 25.9 µM.
Consider `CCOC(=O)C(Cc1cn(C(C)=O)c2ccccc12)P(=O)(OCC)OCC` (stereo unspecified), for which the TGI with K-562 leukemia, in the assay with NCI-H522 lung, in the assay with CAKI-1 renal, in the assay with HCT-15 colon, with RPMI-8226 leukemia and in the assay with SK-MEL-28 melanoma was more than 100 µM each time. The TGI with DU-145 prostate, in the assay on SK-MEL-2 melanoma and with OVCAR-4 ovarian was more than 100 µM throughout.
Regarding `CC(Oc1ccccc1Cl)C(=O)NN1C(=O)CC(=O)NC1=S` (stereo unspecified), the TGI in the assay on K-562 leukemia, in the assay on NCI-H522 lung, in the assay on CAKI-1 renal, in the assay on BT-549 breast, in the assay with HCT-15 colon and in the assay with RPMI-8226 leukemia was more than 100 µM throughout. The TGI with SK-MEL-28 melanoma, with DU-145 prostate, in the assay on SK-MEL-2 melanoma and with OVCAR-4 ovarian was more than 100 µM throughout.
For `COc1cc2c(cc1OCCCOS(C)(=O)=O)N=C[C@@H]1CCCN1C2=O`, the TGI in the assay with NCI-H522 lung, in the assay with CAKI-1 renal, with HCT-15 colon, in the assay with RPMI-8226 leukemia, with SK-MEL-28 melanoma and with DU-145 prostate was more than 100 µM each time. Further, the TGI in the assay with SK-MEL-2 melanoma and in the assay on OVCAR-4 ovarian was more than 100 µM in each case. Also, the GI50 in the assay on OVCAR-4 ovarian was 70.4 µM.
For `COc1ccc(OC)c(C2CCc3c(cnc4nc(N)nc(N)c34)C2)c1` (stereo unspecified), the TGI is 16.1 µM in the assay on K-562 leukemia; 21.7 µM in the assay with NCI-H522 lung; 29.1 µM in the assay with CAKI-1 renal; 40.7 µM in the assay with BT-549 breast; 28.4 µM in the assay with HCT-15 colon; 29.4 µM with SK-MEL-28 melanoma. Besides, the TGI in the assay with DU-145 prostate is 28.4 µM; in the assay with SK-MEL-2 melanoma, 31.8 µM; in the assay with OVCAR-4 ovarian, 23.5 µM.
As for `N#CCCN(CCC#N)c1ccc(/C=C(\NC(=O)c2cc([N+](=O)[O-])ccc2Cl)C(=O)Nc2ccccc2)cc1`, the TGI in the assay with K-562 leukemia, in the assay on NCI-H522 lung, in the assay on CAKI-1 renal, with HCT-15 colon, in the assay on RPMI-8226 leukemia and in the assay on SK-MEL-28 melanoma was more than 100 µM in each case. Besides, the TGI in the assay on SK-MEL-2 melanoma and with OVCAR-4 ovarian was more than 100 µM in each case.
`CCCn1cc2c(SC)nc(SC)nc2n1`: the TGI with K-562 leukemia, in the assay on CAKI-1 renal, in the assay on HCT-15 colon, in the assay with RPMI-8226 leukemia, with SK-MEL-28 melanoma and in the assay on SK-MEL-2 melanoma was more than 100 µM throughout. This compound also yielded a TGI in the assay on OVCAR-4 ovarian of more than 100 µM.
